In paper PMC5542762 (ChemistryOpen, 2017):
Where a name gives a salt, the structure may show the parent alone.

How the values were obtained:
EcTAL = molecular target: T1, EcTAL (Escherichia coli, UniProt P04968); test: HPLC of remaining L-threonine after FDAA derivatization; type: biochemical; settings: L-threonine 100 mM, pyridoxal phosphate 10 μM; Na2CO3-NaHCO3 100 mM, pH 9.0, 30 °C
T1 sequence (P04968 1-514): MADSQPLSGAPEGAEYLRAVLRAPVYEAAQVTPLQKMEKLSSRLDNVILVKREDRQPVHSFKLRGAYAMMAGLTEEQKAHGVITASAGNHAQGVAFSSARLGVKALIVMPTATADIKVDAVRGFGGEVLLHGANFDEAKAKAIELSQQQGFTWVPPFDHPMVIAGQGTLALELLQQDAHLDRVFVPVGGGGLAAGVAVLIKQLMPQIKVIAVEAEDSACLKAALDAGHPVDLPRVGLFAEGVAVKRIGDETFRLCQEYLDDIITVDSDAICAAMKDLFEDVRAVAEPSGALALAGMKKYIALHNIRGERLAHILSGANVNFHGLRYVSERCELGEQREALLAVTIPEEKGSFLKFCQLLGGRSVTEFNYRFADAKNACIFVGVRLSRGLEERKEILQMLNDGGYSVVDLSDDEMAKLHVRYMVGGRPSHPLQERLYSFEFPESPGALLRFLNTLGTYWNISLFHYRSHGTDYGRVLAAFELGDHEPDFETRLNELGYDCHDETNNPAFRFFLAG

PFDH = molecular target: T2, PFDH (Pseudomonas sp. 101, UniProt P33160); test: NAD+ reduction at […] nm, 96-well plate; type: biochemical; settings: sodium formate 20 mM, NAD+ 0.50 mM; Na2CO3-NaHCO3 100 mM, pH 9.0, room temperature
T2 sequence (P33160 2-401): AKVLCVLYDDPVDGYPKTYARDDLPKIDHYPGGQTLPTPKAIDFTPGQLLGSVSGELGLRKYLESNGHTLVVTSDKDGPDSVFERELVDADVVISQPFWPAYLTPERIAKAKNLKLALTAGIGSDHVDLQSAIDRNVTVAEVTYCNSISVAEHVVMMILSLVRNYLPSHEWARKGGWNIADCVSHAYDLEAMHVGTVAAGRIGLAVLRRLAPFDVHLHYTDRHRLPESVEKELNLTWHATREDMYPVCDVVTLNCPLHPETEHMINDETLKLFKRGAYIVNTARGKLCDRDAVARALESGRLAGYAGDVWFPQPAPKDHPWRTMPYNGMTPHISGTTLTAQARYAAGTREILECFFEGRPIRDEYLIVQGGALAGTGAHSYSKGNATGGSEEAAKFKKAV

Row | Structure (SMILES) | HPLC of remaining L-threonine after FDAA derivatization (EcTAL) | NAD+ reduction at 340 nm, 96-well plate (PFDH)
1 | C[C@@H](O)[C@H](N)C(=O)O [L-threonine] | The activity of EcTAL toward L‐threonine was determined by measuring the decrease of threonine | –
2 | O=CO [sodium formate] | – | the activity of the FDH toward the oxidation of formate were determined
